Results from US12559471B2, “1,5-dihydro-2,4-benzodiazepine-3-one derivative and application thereof” (JIANGSU NHWA PHARMACEUTICAL CO., LTD, priority 2020, dated 2026).

Assays:
C57BL/6j mice = assay: Investigation of sedation side effects (autonomic activity, movement distance); type: in vivo; conditions: sedation ED50 / PDP efficacy ED50
Protocol: (§1) 1.3 Investigation of Sedation Side Effects (Anti-Sedation Model)
(§2) According to different doses of each group, solutions at different concentrations were separately formulated for intraperitoneal injection, with the final administration volume of 10 mL/kg.
(§3) The movement at 0-20 min was recorded on video, and the movement distance in 20 min was analyzed by Top Scan 3.00 software. The inhibition rate of each group relative to the blank group after the administration were calculated, and the sedation effects of the compounds were comprehensively evaluated in combination with a statistical conclusion.

[1] = as above; type: in vivo, mice; conditions: mouse, in vivo, ip; C57BL/6j mice, intraperitoneal, 45 min after administration
Protocol: as §1, §2, §3

5-HT2C receptor = 5-HT2C receptor (Rattus norvegicus (Rat), UniProt P08909); conditions: read-out: 5-HT2C (Ki value); rat cortex membrane, 3H-Mesulergine
Chain of 5-HT2C receptor (P08909 33-460): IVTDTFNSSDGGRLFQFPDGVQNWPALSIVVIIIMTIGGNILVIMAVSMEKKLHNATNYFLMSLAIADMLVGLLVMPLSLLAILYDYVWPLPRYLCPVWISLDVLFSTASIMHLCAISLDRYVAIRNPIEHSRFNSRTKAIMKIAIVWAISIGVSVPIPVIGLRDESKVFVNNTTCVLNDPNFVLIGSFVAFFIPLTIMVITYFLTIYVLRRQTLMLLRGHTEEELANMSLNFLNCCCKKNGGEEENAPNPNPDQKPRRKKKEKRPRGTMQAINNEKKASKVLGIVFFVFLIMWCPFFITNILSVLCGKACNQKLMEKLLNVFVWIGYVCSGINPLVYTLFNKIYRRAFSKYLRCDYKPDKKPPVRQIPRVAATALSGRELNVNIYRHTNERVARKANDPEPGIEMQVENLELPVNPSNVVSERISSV

[2] = system: MK-801-induced high activity behavior of mice; assay: Dizocilpine (MK-801)-induced high activity test in mice; type: in vivo; conditions: Mus musculus, 1 h, intragastric, MK-801 0.3 mg/kg i.p., 60 min, read-out: ED50 for inhibiting the MK-801-induced high activity behavior
Protocol: 2. Dizocilpine (MK-801)-Induced High Activity Test in Mice 2.1 Test Method
Mice were stratified according to body weight and then randomly divided into a model control group, a blank control group and drug administration groups. After the administration of a test substance (or a control substance), the mice were placed into an autonomous activity test box (a black polyethylene box with the specification of 29 cm×29 cm×30 cm) for adaptation, and injected with MK-801 at 0.3 mg/kg intraperitoneally 1 h after the intragastric administration. The mice were then placed into the autonomous activity test box for video recording for 60 min. Video analysis was performed after the video recording to evaluate the activity of the mice.

[3] = system: DOI-induced head shaking behavior of mice; assay: DOI-induced head shaking (head thrust) test in mice; type: in vivo; conditions: Mus musculus, intragastric, DOI 1 mg/kg i.p., 0-20 min, read-out: ED50 for inhibiting the DOI-induced head shaking behavior
Protocol: 1. Head Thrust Test in Mice
Mice were stratified according to body weight and then randomly divided into a model control group, a blank control group and drug administration groups. 1 h after the intragastric administration of a vehicle or a drug, the animals were placed in a beaker (with the diameter of 13 cm and the height of 19 cm) paved with fresh padding, and were injected with a modeling drug DOI ((±)-1-(2,5-dimethoxy-4-iodophenyl)-2-aminopropane hydrochloride or (±)-2,5-dimethoxy-4-iodoamphetamine hydrochloride) intraperitoneally at a dose of 1 mg/kg. The head shaking times of the mice during the 0-20 min after the intraperitoneal injection of DOI were recorded. The head shaking behavior is defined as a rapid rotational twitching or wet dog-like shaking of the mouse head, which is distinguished from normal grooming or exploring behavior.

5-HT2A receptor = 5-HT2A receptor (Homo sapiens (Human), UniProt P28223); assay: Competitive 5-HT2A receptor binding assay (3H-Ketanserin, CHO-5-HT2A membrane)
Chain of 5-HT2A receptor (P28223 whole entry): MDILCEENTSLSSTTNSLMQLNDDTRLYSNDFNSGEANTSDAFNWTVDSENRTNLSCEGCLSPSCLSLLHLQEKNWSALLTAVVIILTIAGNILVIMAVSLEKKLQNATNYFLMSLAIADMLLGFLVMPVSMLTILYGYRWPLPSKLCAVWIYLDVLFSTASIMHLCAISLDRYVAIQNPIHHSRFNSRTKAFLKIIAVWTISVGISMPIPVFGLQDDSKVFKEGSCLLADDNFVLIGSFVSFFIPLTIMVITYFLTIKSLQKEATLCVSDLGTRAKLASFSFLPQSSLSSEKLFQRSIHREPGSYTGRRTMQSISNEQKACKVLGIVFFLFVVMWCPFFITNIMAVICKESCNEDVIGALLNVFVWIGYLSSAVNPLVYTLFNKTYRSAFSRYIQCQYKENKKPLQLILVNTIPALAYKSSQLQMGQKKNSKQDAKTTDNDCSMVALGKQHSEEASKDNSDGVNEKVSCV
Protocol: 1) Preparation of CHO-5-HT2A Receptor Membrane
The precipitate was collected, and the supernatant was discarded. The solution B was added into the precipitate. […] The supernatant was carefully discarded, and the solution B was added into the precipitate again. […] The precipitate obtained was stored at −80° C.
1) Competitive 5-HT2A Receptor Binding Assay
Step 2: 100 μL of the membrane preparation was added into each reaction tube.
After the filtration, the filter membrane was dried at 60° C. and added into a scintillation disc attached with a bottom membrane, which was then added with 40 μL of scintillation liquid, sealed with a top membrane, and left to stand.

[4] = system: MPTP+APO-induced climbing behavior in male mice; assay: MPTP+APO-induced climbing behavior in male mice (DA motor deterioration model); type: in vivo; conditions: observation in words
Protocol: 1.2 Effect on MPTP+APO-induced climbing behavior in male mice (DA motor deterioration model) Animals were injected with different doses of MPTP intraperitoneally every morning for 5 consecutive days. […] After the subcutaneous injection, animals were immediately placed into a climbing cage (self-made, a cylindrical cage with the diameter of 13 cm and the height of 15 cm, made of a stainless steel wire mesh with the diameter of about 0.1 cm, the bottom of which is a semitransparent polyethylene plate, and the cage cover of which is a stainless steel cage cover), and the behaviors of animals at minutes 10-11, 20-21 and 30-31 after the APO injection was observed and scored.
Scoring criteria: four feet on the floor scored 0; two forepaws on the cage scored 1; and four feet on the cage scored 2.

hERG potassium channel = hERG potassium channel (Homo sapiens (Human), UniProt Q12809); assay: In vitro hERG assay, whole-cell patch clamp in HEK-293 cells; type: cell-based; conditions: HEK-293 cells stably expressing hERG, room temperature
Chain of hERG potassium channel (Q12809 whole entry): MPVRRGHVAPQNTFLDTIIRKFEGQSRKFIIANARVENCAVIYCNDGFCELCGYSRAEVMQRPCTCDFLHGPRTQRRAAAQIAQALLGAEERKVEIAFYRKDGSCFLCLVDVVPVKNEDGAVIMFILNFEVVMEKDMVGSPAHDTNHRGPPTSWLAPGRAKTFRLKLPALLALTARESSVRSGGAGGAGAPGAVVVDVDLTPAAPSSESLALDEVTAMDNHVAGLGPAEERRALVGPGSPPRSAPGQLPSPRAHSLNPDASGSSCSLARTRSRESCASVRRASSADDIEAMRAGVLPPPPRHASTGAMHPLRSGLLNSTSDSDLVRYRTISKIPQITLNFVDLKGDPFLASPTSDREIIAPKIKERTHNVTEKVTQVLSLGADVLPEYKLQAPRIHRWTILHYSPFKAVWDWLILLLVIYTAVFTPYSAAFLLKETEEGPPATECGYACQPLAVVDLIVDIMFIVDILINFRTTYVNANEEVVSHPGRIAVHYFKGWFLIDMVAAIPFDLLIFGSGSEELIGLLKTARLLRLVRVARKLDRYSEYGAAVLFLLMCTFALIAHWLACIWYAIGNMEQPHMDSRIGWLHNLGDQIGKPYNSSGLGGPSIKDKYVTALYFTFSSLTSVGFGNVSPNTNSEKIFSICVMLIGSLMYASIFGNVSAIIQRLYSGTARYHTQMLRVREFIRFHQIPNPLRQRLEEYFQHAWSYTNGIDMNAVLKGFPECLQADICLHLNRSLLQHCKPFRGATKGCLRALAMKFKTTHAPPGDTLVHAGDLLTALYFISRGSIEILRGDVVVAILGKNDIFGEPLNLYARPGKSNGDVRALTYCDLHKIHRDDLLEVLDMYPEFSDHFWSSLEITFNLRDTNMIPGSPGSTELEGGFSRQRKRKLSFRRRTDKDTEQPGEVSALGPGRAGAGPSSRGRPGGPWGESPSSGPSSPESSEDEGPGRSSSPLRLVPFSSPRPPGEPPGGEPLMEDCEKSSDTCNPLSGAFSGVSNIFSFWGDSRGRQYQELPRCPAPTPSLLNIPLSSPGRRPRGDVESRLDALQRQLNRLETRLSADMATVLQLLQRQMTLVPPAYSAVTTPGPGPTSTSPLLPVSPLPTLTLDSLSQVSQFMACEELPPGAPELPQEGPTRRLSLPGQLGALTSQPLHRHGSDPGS
Protocol: b. […] The working solutions of the test compounds were ultrasonically treated for 20 min.
The cell suspension was gently pipetted to separate the aggregated cells.
Under an inverted microscope, recording electrodes were controlled by a glass electrode micromanipulator (micromanipulation) to contact with the cell. […] After forming the GΩ seal, a rapid capacitance compensation was given.
Negative control and test compounds flowed through the recording chamber in an ascending order of concentration by gravity perfusion to quickly act on the cells. During the recording, the extracellular fluid was continuously circulated by a vacuum pump. […] Each concentration was allowed to act for 5 min or until the current was stabilized. All experiments were performed at room temperature.
[formula] Basic statistics were calculated for each concentration, including mean, standard deviation (SD), standard error (SE), and replicates (n). The dose-dependent curve was fitted with the following equation and the half maximal inhibitory concentration (IC50) of the test compounds was calculated:
Curve fitting and calculation of IC50 were performed by GraphPad Prism 5.0 software. 5. Experimental Results

[5] = system: MPTP+MK-801-induced Parkinson's disease mouse model; assay: MPTP+MK-801-induced Parkinson's disease mouse model (anti-PDP efficacy model); type: in vivo; conditions: ip, mice, intraperitoneal, read-out: PDP efficacy (high activity) ED50
Protocol: 1.1 Effect on MPTP+MK-801-induced Parkinson's disease mouse model (anti-PDP efficacy model)
Animals were injected with different doses of MPTP(1-methyl-4-phenyl-1,2,3,6-tetrahydropyridine) intraperitoneally every morning for 5 consecutive days. […] Then, after an interval of 0.25 h, the mice were placed into an autonomous activity test box (a black polyethylene box with the specification of 29 cm×29 cm×30 cm) for video recording for 20 min. Video analysis was performed after the video recording to evaluate the activity of the mice.

Question: Which results are given for `CC(C)COc1ccc(CN2Cc3ccc(F)cc3CN(C3CCN(C)CC3)C2=O)cc1` [NH-K-A19005, 8-fluoro-2-(1-methylpiperidin-4-yl)-4-[[4-(2-methylpropoxy)phenyl]methyl]-1,5-dihydro-2,4-benzo diazepine-3-one]?
Answer: Ratio of sedation ED50 to PDP efficacy ED50 (C57BL/6j mice): 10.8; ED50 at 45 min [1]: 20 mg/kg; Ki (5-HT2C receptor): 3.39 nM; ED50 [2]: 1.01 mg/kg; ED50 [3]: 0.15 mg/kg; Ki (5-HT2A receptor; CHO-5-HT2A membrane, 3H-Ketanserin, read-out: 5-HT2A (Ki value)): 0.429 nM; 2C/2A (5-HT2A receptor; ratio of 5-HT2C Ki to 5-HT2A Ki): 7.907; motor deterioration (DA mechanism of action) [4]: no motor deterioration is observed; IC50 (hERG potassium channel): 3170 nM; ED50 [5]: 1.85 mg/kg
